Test [1] concerns the target T1, mTOR (Homo sapiens, UniProt P42345).
T1 construct: purchased Invitrogen Corporation (Carlsbad/Calif., USA) PV4753
Put plainly: Biochemical assay for m-TOR by TR-FRET. In short, it runs like this: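 mTOR (0.5 nM) phosphorylates GFP-4EBP1 (400 nM) with 8 μM ATP at rt in 50 mM HEPES pH 7.5, 10 mM MnCl2, 50 mM NaCl, 1 mM EGTA, 1 mM DTT; compounds 0.003–10 μM final. EDTA stop with Tb-anti-p4EBP1[pT46] antibody (0.5 nM); TR-FRET read after 15 min against no-enzyme and vehicle controls.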
(In general: TR-FRET usually uses a lanthanide donor and a delayed reading to cut background.)

For test [2], the target named is T2, PI3K alfa (Homo sapiens, UniProt P42336).
T2 construct: His tag (C); made in house; host or cells: baculovirus BV1075; Tn5 (Trichoplusia ni) or TiniPro insect cells
The test is described as follows: PI3K alpha kinase assay (Kinase-Glo luminescence). The format is biochemical. An outline of the steps:
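IC50 values come from a four-parameter logistic fit of percent inhibition at eight concentrations, typically 10 to 0.003 μM. Recombinant PI3Kα at 10 nM turned over 1 μM ATP with 10 μg/mL PI for 60 min at room temperature, and residual ATP was measured by Kinase-Glo.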
Background: In Kinase-Glo more light means more ATP remaining.

Like-named read-outs stand apart in the source and are kept apart here.

T1 sequence (P42345 1360-2549 limits assumed): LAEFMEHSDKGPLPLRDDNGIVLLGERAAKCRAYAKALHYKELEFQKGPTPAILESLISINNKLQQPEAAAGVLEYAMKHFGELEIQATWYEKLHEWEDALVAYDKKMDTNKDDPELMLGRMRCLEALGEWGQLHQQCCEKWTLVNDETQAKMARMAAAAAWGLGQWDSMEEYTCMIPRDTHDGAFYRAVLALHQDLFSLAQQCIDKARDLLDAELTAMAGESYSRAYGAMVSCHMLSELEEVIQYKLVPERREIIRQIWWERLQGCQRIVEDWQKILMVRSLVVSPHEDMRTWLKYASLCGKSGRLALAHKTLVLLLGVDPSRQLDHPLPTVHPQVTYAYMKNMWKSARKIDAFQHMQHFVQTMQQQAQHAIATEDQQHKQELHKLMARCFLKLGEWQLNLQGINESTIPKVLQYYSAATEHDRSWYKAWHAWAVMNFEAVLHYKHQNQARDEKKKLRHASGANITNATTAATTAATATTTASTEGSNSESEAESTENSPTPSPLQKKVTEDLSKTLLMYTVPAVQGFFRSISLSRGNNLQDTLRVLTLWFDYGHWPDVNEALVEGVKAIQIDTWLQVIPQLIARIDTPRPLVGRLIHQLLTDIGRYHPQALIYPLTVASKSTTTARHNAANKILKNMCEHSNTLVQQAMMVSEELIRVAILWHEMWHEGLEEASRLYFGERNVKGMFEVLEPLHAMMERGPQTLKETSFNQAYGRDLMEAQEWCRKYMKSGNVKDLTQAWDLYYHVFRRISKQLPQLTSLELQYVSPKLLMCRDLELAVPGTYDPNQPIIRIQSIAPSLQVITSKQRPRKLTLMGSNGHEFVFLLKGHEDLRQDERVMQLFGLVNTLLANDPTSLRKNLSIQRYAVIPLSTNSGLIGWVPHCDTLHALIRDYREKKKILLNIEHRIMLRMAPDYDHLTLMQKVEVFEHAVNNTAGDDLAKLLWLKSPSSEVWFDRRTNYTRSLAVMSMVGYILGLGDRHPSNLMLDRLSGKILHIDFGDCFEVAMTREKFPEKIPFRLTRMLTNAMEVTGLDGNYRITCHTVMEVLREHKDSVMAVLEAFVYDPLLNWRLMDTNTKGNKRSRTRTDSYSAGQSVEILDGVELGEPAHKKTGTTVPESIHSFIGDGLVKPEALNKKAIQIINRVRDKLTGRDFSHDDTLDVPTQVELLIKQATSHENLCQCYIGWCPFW
T2 sequence (P42336 with tags, fused parts or gaps limits assumed): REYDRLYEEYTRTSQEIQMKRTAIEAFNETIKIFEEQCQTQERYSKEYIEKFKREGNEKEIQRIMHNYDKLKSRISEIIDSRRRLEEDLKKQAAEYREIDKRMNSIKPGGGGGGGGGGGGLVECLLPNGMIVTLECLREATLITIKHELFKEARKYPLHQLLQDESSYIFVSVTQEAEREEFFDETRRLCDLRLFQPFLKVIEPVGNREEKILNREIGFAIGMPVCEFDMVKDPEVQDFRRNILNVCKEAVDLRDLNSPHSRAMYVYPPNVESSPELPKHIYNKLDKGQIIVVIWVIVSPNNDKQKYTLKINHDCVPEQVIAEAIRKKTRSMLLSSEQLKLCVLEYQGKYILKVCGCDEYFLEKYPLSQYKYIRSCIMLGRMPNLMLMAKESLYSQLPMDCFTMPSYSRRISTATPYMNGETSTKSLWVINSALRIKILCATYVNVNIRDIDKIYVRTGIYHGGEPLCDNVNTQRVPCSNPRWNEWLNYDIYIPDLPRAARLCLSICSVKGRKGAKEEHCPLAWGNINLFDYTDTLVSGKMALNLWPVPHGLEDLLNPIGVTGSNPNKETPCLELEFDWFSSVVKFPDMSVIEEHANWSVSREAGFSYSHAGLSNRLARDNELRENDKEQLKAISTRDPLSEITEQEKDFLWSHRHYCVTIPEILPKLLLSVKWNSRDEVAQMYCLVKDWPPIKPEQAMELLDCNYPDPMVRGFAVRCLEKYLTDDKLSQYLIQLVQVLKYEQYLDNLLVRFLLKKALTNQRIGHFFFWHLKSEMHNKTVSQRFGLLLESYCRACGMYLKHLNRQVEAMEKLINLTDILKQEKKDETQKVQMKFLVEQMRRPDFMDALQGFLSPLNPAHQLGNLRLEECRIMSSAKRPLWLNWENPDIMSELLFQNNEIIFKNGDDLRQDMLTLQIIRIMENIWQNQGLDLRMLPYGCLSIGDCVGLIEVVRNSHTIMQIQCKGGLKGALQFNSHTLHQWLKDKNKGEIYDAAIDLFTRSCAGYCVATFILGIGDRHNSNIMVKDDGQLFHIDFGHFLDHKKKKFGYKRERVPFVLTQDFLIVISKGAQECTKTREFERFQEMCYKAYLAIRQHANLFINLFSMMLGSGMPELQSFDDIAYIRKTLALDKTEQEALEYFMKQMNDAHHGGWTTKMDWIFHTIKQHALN

On to `CNC(=O)c1ccc(-c2ccc3ncc4c(c3c2)n(-c2cccnc2C)c(=O)n4C)cc1` [Example 2.4, N-Methyl-4-[3-methyl-1-(2-methyl-pyridin-3-yl)-2-oxo-2,3-dihydro-1H-imidazo[4,5-c]quinolin-8-yl]-benzamide], for which the IC50 in test [1] (read-out: mTOR/IC50) was 12 nM; in test [2] (read-out: PI3Kalfa/IC50), 29 nM.
Take `Cc1ncccc1-n1c(=O)n(C)c2cnc3ccc(-c4cnc5[nH]ccc5c4)cc3c21` [Example 2.8, 3-Methyl-1-(2-methyl-pyridin-3-yl)-8-(1H-pyrrolo[2,3-b]pyridin-5-yl)-1,3-dihydro-imidazo[4,5-c]quinolin-2-one]: in test [2] (read-out: PI3Kalfa/IC50), the IC50 worked out at 26 nM.
`COCc1ncc(-c2ccc3ncc4c(c3c2)n(-c2cccnc2C)c(=O)n4C)cc1OC` [Example 2.30, 8-(5-Methoxy-6-methoxymethyl-pyridin-3-yl)-3-methyl-1-(2-methyl-pyridin-3-yl)-1,3-dihydro-imidazo[4,5-c]quinolin-2-one]: the IC50 in test [1] (read-out: EPK_mTOR/IC50) is 77 nM; in test [2] (read-out: EPK_PI3Kalfa/IC50), 75 nM.
With `Cn1c(=O)n(-c2cccnc2F)c2c3cc(-c4cnc5[nH]ccc5c4)ccc3ncc21` [Example 6.3, 1-(2-Fluoro-pyridin-3-yl)-3-methyl-8-(1H-pyrrolo[2,3-b]pyridin-5-yl)-1,3-dihydro-imidazo[4,5-c]quinolin-2-one], the IC50 in test [1] (read-out: mTOR/IC50) was 47 nM; in test [2] (read-out: PI3Kalfa/IC50), 41 nM.
In the case of `Cc1nc(F)ccc1-n1c(=O)n(C)c2cnc3ccc(-c4cncc(N5CCC5)c4)cc3c21` [Example 7.6, 8-(5-Azetidin-1-yl-pyridin-3-yl)-1-(6-fluoro-2-methyl-pyridin-3-yl)-3-methyl-1,3-dihydro-imidazo[4,5-c]quinolin-2-one], the IC50 stood at 59 nM in test [1] (read-out: EPK_mTOR/IC50) and 68 nM in test [2] (read-out: EPK_PI3Kalfa/IC50).
`COCc1ncc(-c2ccc3ncc4c(c3c2)n(-c2ccc(F)nc2C)c(=O)n4C)cc1OC` [Example 7.7, 1-(6-Fluoro-2-methyl-pyridin-3-yl)-8-(5-methoxy-6-methoxymethyl-pyridin-3-yl)-3-methyl-1,3-dihydro-imidazo[4,5-c]quinolin-2-one]: the IC50 in test [1] (read-out: EPK_mTOR/IC50) is 447 nM; in test [2] (read-out: EPK_PI3Kalfa/IC50), 127 nM.
The matching figures for `COc1cc(-c2ccc3ncc4c(c3c2)n(-c2ccc(F)nc2C)c(=O)n4C)cnc1CO` [Example 7.10, 1-(6-Fluoro-2-methyl-pyridin-3-yl)-8-(6-hydroxymethyl-5-methoxy-pyridin-3-yl)-3-methyl-1,3-dihydro-imidazo[4,5-c]quinolin-2-one]: 301 nM and 24 nM.
The matching figures for `COc1ccc(-n2c(=O)n(C)c3cnc4ccc(-c5cncc(N6CCC6)c5)cc4c32)c(OC)n1` [Example 8.11, 8-(5-Azetidin-1-yl-pyridin-3-yl)-1-(2,6-dimethoxy-pyridin-3-yl)-3-methyl-1,3-dihydro-imidazo[4,5-c]quinolin-2-one]: 5 nM and 365 nM.
The matching figures for `COc1ccc(-n2c(=O)n(C)c3cnc4ccc(-c5cnc(C(OC)OC)c(OC)c5)cc4c32)c(OC)n1` [Example 8.13, 8-(6-Dimethoxymethyl-5-methoxy-pyridin-3-yl)-1-(2,6-dimethoxy-pyridin-3-yl)-3-methyl-1,3-dihydro-imidazo[4,5-c]quinolin-2-one]: 86 nM and 247 nM.
On to `COc1ccc(-n2c(=O)n(C)c3cnc4ccc(-c5cnc(CO)c(OC)c5)cc4c32)c(OC)n1` [Example 8.14, 1-(2,6-Dimethoxy-pyridin-3-yl)-8-(6-hydroxymethyl-5-methoxy-pyridin-3-yl)-3-methyl-1,3-dihydro-imidazo[4,5-c]quinolin-2-one], for which the IC50 in test [1] (read-out: EPK_mTOR/IC50) is 115 nM; in test [2] (read-out: EPK_PI3Kalfa/IC50), 59 nM.
The matching figures for `COc1cc(-c2ccc3ncc4c(c3c2)n(-c2ccc(N3CC(F)(F)C3)nc2C)c(=O)n4C)cnc1CO` [Example 24.4, 1-[6-(3,3-Difluoro-azetidin-1-yl)-2-methyl-pyridin-3-yl]-8-(6-hydroxymethyl-5-methoxy-pyridin-3-yl)-3-methyl-1,3-dihydro-imidazo[4,5-c]quinolin-2-one]: 449 nM and 56 nM.
Turning to `COc1cc(-c2ccc3ncc4c(c3c2)n(-c2ccc(N3CCCC3)nc2C)c(=O)n4C)cnc1CO` [Example 25.4, 8-(6-Hydroxymethyl-5-methoxy-pyridin-3-yl)-3-methyl-1-(2-methyl-6-pyrrolidin-1-yl-pyridin-3-yl)-1,3-dihydro-imidazo[4,5-c]quinolin-2-one], the IC50 in test [1] (read-out: EPK_mTOR/IC50) worked out at 655 nM; in test [2] (read-out: EPK_PI3Kalfa/IC50), 27 nM.
Regarding `CCNc1cc(-c2ccc3ncc4c(c3c2)n(-c2ccc(N3CCCC3)nc2C)c(=O)n4C)cnc1CO` [Example 25.5, 8-(5-Ethylamino-6-hydroxymethyl-pyridin-3-yl)-3-methyl-1-(2-methyl-6-pyrrolidin-1-yl-pyridin-3-yl)-1,3-dihydro-imidazo[4,5-c]quinolin-2-one], the results for the IC50 in test [1] (read-out: EPK_mTOR/IC50) and in test [2] (read-out: EPK_PI3Kalfa/IC50) were 22 nM and 28 nM, respectively.
The matching figures for `CCNc1cc(-c2ccc3ncc4c(c3c2)n(-c2ccc(N(C)CCO)nc2C)c(=O)n4C)cnc1CO` [Example 26.3, 8-(5-Ethylamino-6-hydroxymethyl-pyridin-3-yl)-1-{6-[(2-hydroxy-ethyl)-methyl-amino]-2-methyl-pyridin-3-yl}-3-methyl-1,3-dihydro-imidazo[4,5-c]quinolin-2-one]: 9 nM and 84 nM.
For `Cc1nc(N2CCC(O)C2)ccc1-n1c(=O)n(C)c2cnc3ccc(-c4cnc(N)c(C(F)(F)F)c4)cc3c21` (stereo not shown) [Example 27.3, 8-(6-Amino-5-trifluoromethyl-pyridin-3-yl)-1-[6-(3-hydroxy-pyrrolidin-1-yl)-2-methyl-pyridin-3-yl]-3-methyl-1,3-dihydro-imidazo[4,5-c]quinolin-2-one], the IC50 was determined as 7 nM in test [1] (read-out: EPK_mTOR/IC50) and 5 nM in test [2] (read-out: EPK_PI3Kalfa/IC50).
The matching figures for `CCOc1ccc(-c2ccc3ncc4c(c3c2)n(-c2ccc(N3CCC(O)C3)nc2C)c(=O)n4C)cn1` (stereo not shown) [Example 27.4, 8-(6-Ethoxy-pyridin-3-yl)-1-[6-(3-hydroxy-pyrrolidin-1-yl)-2-methyl-pyridin-3-yl]-3-methyl-1,3-dihydro-imidazo[4,5-c]quinolin-2-one]: 23 nM and 39 nM.
The matching figures for `Cc1nc(N2CCC(O)C2)ccc1-n1c(=O)n(C)c2cnc3ccc(-c4cncc(C(C)(C)O)c4)cc3c21` (stereo not shown) [Example 27.5, 8-[5-(1-Hydroxy-1-methyl-ethyl)-pyridin-3-yl]-1-[6-(3-hydroxy-pyrrolidin-1-yl)-2-methyl-pyridin-3-yl]-3-methyl-1,3-dihydro-imidazo[4,5-c]quinolin-2-one]: 15 nM and 10 nM.
The matching figures for `CNc1ncc(-c2ccc3ncc4c(c3c2)n(-c2ccc(N3CCC(OC)C3)nc2C)c(=O)n4C)cn1` (stereo not shown) [Example 28.2, 1-[6-(3-Methoxy-pyrrolidin-1-yl)-2-methyl-pyridin-3-yl]-3-methyl-8-(2-methylamino-pyrimidin-5-yl)-1,3-dihydro-imidazo[4,5-c]quinolin-2-one]: 8 nM and 34 nM.
As for `COc1cc(-c2ccc3ncc4c(c3c2)n(-c2ccc(N3CCC(OC)C3)nc2C)c(=O)n4C)cnc1CO` (stereo not shown) [Example 28.3, 8-(6-Hydroxymethyl-5-methoxy-pyridin-3-yl)-1-[6-(3-methoxy-pyrrolidin-1-yl)-2-methyl-pyridin-3-yl]-3-methyl-1,3-dihydro-imidazo[4,5-c]quinolin-2-one], the IC50 is 172 nM in test [1] (read-out: EPK_mTOR/IC50) and 23 nM in test [2] (read-out: EPK_PI3Kalfa/IC50).

Values taken from patent publication US20100311714A1, “1H-IMIDAZO[4,5-c]QUINOLINONE COMPOUNDS” (priority 2009, published 2010).
